{"source": "patent US20110086797A1", "about": "“CONTROL OF SPORE GERMINATION” (priority 2007, published 2011)", "key": {"[1]": {"test_system": "B. subtilis spores", "experiment": "Measurement of germination by loss of heat resistance", "assay_type": "cell-based, Bacillus subtilis"}, "[2]": {"test_system": "B. subtilis spores", "experiment": "Measurement of germination by fluorescence (Syto-9 dye)", "assay_type": "cell-based, Bacillus subtilis", "settings": "1 μM Bryostatin"}, "[3]": {"test_system": "B. subtilis wild type spores", "experiment": "Sensitivity to antibiotic (tetracycline) after stimulation of germination", "settings": "for % Loss in viable cells: germinant 60 min at 37° C. (muropeptide 40 μM, bryostatin 1 μM), then tetracycline 10 μg/ml 60 min, relative to no germinant"}}, "note": "“Also recorded” adds a separate entry of the source. Like-named read-outs stand apart in the source and are kept apart here."}
{"compound": "CC(=O)N[C@H]1C(O)O[C@H](CO)[C@@H](O)[C@@H]1O[C@H](C)C(=O)N[C@@H](C)C(=O)N[C@H](CCC(=O)O)C(N)=O", "note": "(mixture of isomers) [muramyl dipeptide]", "values": [{"measurement": "germination of wild type spores (result in words)", "setting": "[1]", "result": "failed to induce germination"}]}
{"compound": "CCC/C=C/C=C/C(=O)O[C@H]1/C(=C/C(=O)OC)C[C@H]2C[C@H]([C@@H](C)O)OC(=O)C[C@H](O)C[C@@H]3C[C@H](OC(C)=O)C(C)(C)[C@](O)(C[C@@H]4C/C(=C/C(=O)OC)C[C@H](/C=C/C(C)(C)[C@]1(O)O2)O4)O3", "note": "[Bryostatin]", "values": [{"measurement": "germination of ΔprkC spores (result in words)", "setting": "[1]", "result": "had no effect"}, {"measurement": "maximum % germination", "setting": "[1]; […], 1.0 μM bryostatin, 60 min", "result": "~40", "unit": "%"}, {"measurement": "Fluorescence Germination Results", "setting": "[2]; Wild-type spores, 5' at 37° C., excitation/emission 485/530", "result": 14331}, {"measurement": "Fluorescence Germination Results", "setting": "[2]; ΔprKC (kinase mutant) spores, 5' at 37° C., 485/530", "result": 5208}, {"measurement": "Fluorescence Germination Results", "setting": "[2]; ΔprpC (phosphatase mutant) spores, 5' at 37° C., 485/530", "result": 13183}, {"measurement": "Fluorescence Germination Results", "setting": "[2]; ΔprpC, PrpC (phosphatase mutant overexpressing phosphatase from an ectopic site) spores, 485/530", "result": 5529}, {"measurement": "% Loss in viable cells", "setting": "[3]", "result": "32 ± 7", "unit": "%"}, {"measurement": "sensitivity of treated spores to antibiotics (result in words)", "setting": "[3]; wild type B. subtilis spores, tetracycline and spectinomycin", "result": "become sensitive to the ribosomal antibiotics tetracycline and spectinomycin"}]}
{"compound": "O=C([O-])c1cccc(C(=O)[O-])n1.[Ca+2]", "note": "[Ca^2+-dipicolinic acid]", "values": [{"measurement": "germination of ΔprkC spores (result in words)", "setting": "[1]", "result": "still responded"}]}
{"compound": "C[C@@H](N)C(=O)O", "note": "[D-alanine]", "values": [{"measurement": "inhibition of cell wall / peptidoglycan dependent germination (result in words)", "setting": "[1]", "result": "did not block cell wall dependent germination"}]}
{"compound": "C[C@H](N)C(=O)O", "note": "[L-alanine]", "values": [{"measurement": "germination of ΔprkC spores (result in words)", "setting": "[1]", "result": "still responded"}, {"measurement": "germination of ΔprkC spores (result in words)", "setting": "[1]; listed as alanine", "result": "still respond to alanine"}]}
{"compound": "CCCCCCCCCCCCCC(=O)O[C@@H]1[C@@H](C)[C@@]2(O)[C@@H](C=C(CO)C[C@]3(O)C(=O)C(C)=C[C@@H]23)[C@@H]2C(C)(C)[C@]12OC(C)=O", "note": "[PMA, phorbol-12-myristate-13-acetate]", "values": [{"measurement": "germination of wild type spores (result in words)", "setting": "[1]", "result": "chemically induces germination"}]}
{"compound": "CN[C@@H]1C[C@H]2O[C@@](C)([C@@H]1OC)n1c3ccccc3c3c4c(c5c6ccccc6n2c5c31)C(=O)NC4", "note": "[staurosporine]", "values": [{"measurement": "germination with increasing amounts of peptidoglycan in the presence of inhibitor", "setting": "[1]; 10 pM staurosporine, […]", "result": "did not increase germination"}, {"measurement": "concentration as low as which significantly reduced peptidoglycan-dependent germination", "setting": "[1]; […], 100 ng/ml B. subtilis peptidoglycan, 60 min", "result": 10, "unit": "pM"}, {"measurement": "effect on L-alanine germination", "setting": "[1]; data not shown", "result": "unaffected"}]}
{"compound": "Ala-D-γ-Glu-Dpm tripeptide", "values": [{"measurement": "germination of wild type spores (result in words)", "setting": "[1]; wild type B. subtilis spores", "result": "failed to induce germination"}]}
{"compound": "GlcNAc-MurNAc tripeptide [Muropeptide]", "values": [{"measurement": "concentration as low as which led to germination", "setting": "[1]", "result": 1, "unit": "µM"}, {"measurement": "germination of ΔprkC spores (result in words)", "setting": "[1]", "result": "failed to germinate"}, {"measurement": "% Loss in viable cells", "setting": "[3]", "result": "72 ± 3", "unit": "%"}]}
{"compound": "Teleocidin", "values": [{"measurement": "germination of wild type spores (result in words)", "setting": "[1]", "result": "able to stimulate germination of only the wildtype spore; also recorded: stimulated germination of wildtype spores"}, {"measurement": "germination of ΔprkC spores (result in words)", "setting": "[1]", "result": "able to stimulate germination of only the wildtype spore"}]}
